Laboratory results published in ChEMBL document CHEMBL5038625, “Application of the dual-tail approach for the design and synthesis of novel Thiopyrimidine-Benzenesulfonamide hybrids as selective carbonic anhydrase inhibitors” (Eur J Med Chem, 2022).

Assays:
[1] = tested on: LOX IMVI; test: Antiproliferative activity against human LOX IMVI cells assessed as cell growth inhibition at 10 uM incubated for 24 hrs by sulforhodamine B assay; type: functional; conditions: read-out: GI
[2] = target: Carbonic anhydrase 9 (Homo sapiens, UniProt Q16790); test: Inhibition of human CA9 preincubated for 15 mins by phenol red dye based stopped flow CO2 hydration assay
[3] = tested on: RXF 393; test: Antiproliferative activity against human RXF 393 cells assessed as cell growth inhibition at 10 uM incubated for 24 hrs by sulforhodamine B assay; type: functional; conditions: read-out: GI
[4] = tested on: MDA-MB-231; test: Antiproliferative activity against human MDA-MB-231 cells assessed as cell growth inhibition at 10 uM incubated for 24 hrs by sulforhodamine B assay; type: functional; conditions: read-out: GI
[5] = tested on: CAKI-1; test: Antiproliferative activity against human CAKI-1 cells assessed as cell growth inhibition at 10 uM incubated for 24 hrs by sulforhodamine B assay; type: functional; conditions: read-out: GI
[6] = tested on: UACC-62; test: Antiproliferative activity against human UACC-62 cells assessed as cell growth inhibition at 10 uM incubated for 24 hrs by sulforhodamine B assay; type: functional; conditions: read-out: GI
[7] = tested on: 786-0; test: Antiproliferative activity against human 786-0 cells assessed as cell growth inhibition at 10 uM incubated for 24 hrs by sulforhodamine B assay; type: functional; conditions: read-out: GI
[8] = tested on: MCF7; test: Antiproliferative activity against human MCF7 cells assessed as reduction in cell viability incubated for 24 hrs by sulforhodamine B assay; type: functional, cell-based; conditions: MCF7, 24 h
[9] = tested on: T47D; test: Antiproliferative activity against human T47D cells assessed as reduction in cell viability incubated for 24 hrs by sulforhodamine B assay; type: functional, cell-based
[10] = tested on: NCI-H226; test: Antiproliferative activity against human NCI-H226 cells assessed as cell growth inhibition at 10 uM incubated for 24 hrs by sulforhodamine B assay; type: functional; conditions: read-out: GI
[11] = tested on: HL-60; test: Antiproliferative activity against human HL-60 cells assessed as cell growth inhibition at 10 uM incubated for 24 hrs by sulforhodamine B assay; type: functional; conditions: read-out: GI
[12] = tested on: MDA-MB-231; test: Antiproliferative activity against human MDA-MB-231 cells assessed as reduction in cell viability incubated for 24 hrs by sulforhodamine B assay; type: functional, cell-based; conditions: MDA-MB-231, 24 h
[13] = tested on: ACHN; test: Antiproliferative activity against human ACHN cells assessed as cell growth inhibition at 10 uM incubated for 24 hrs by sulforhodamine B assay; type: functional; conditions: read-out: GI
[14] = tested on: NCI-H23; test: Antiproliferative activity against human NCI-H23 cells assessed as cell growth inhibition at 10 uM incubated for 24 hrs by sulforhodamine B assay; type: functional; conditions: read-out: GI
[15] = tested on: SK-OV-3; test: Antiproliferative activity against human SK-OV-3 cells assessed as cell growth inhibition at 10 uM incubated for 24 hrs by sulforhodamine B assay; type: functional; conditions: read-out: GI
[16] = tested on: MDA-MB-468; test: Antiproliferative activity against human MDA-MB-468 cells assessed as cell growth inhibition at 10 uM incubated for 24 hrs by sulforhodamine B assay; type: functional; conditions: read-out: GI
[17] = tested on: MCF7; test: Antiproliferative activity against human MCF7 cells assessed as cell growth inhibition at 10 uM incubated for 24 hrs by sulforhodamine B assay; type: functional; conditions: read-out: GI
[18] = tested on: UO-31; test: Antiproliferative activity against human UO-31 cells assessed as cell growth inhibition at 10 uM incubated for 24 hrs by sulforhodamine B assay; type: functional; conditions: read-out: GI
[19] = tested on: NCI-H522; test: Antiproliferative activity against human NCI-H522 cells assessed as cell growth inhibition at 10 uM incubated for 24 hrs by sulforhodamine B assay; type: functional; conditions: read-out: GI

`CC(C)c1nc(SCC(=O)c2ccccc2)nc(Nc2ccc(S(N)(=O)=O)cc2)c1C#N` showed an inhibition of growth at 10 µM [1] of 16.5%, a Ki [2] of 0.0966 µM and an inhibition of growth at 10 µM [3] of 13.8%. The inhibition of growth at 10 µM [4] was 5.5%, the inhibition of growth at 10 µM [5] was 8.76% and the inhibition of growth at 10 µM [6] was 10.2%. It also gave an inhibition of growth at 10 µM [7] of 5.2%, an IC50 [8] of 47.6 µM and an IC50 [9] of 46.4 µM. For the same molecule, the inhibition of growth at 10 µM [10] was 11.8%, the inhibition of growth at 10 µM [11] was 5.93% and the IC50 [12] was 21 µM. The inhibition of growth at 10 µM [13] was 7.34%, the inhibition of growth at 10 µM [14] was 13.1% and the inhibition of growth at 10 µM [15] was 5.58%. It also gave an inhibition of growth at 10 µM [16] of 9.86%, an inhibition of growth at 10 µM [17] of 11.4% and an inhibition of growth at 10 µM [18] of 36.3%. The inhibition of growth at 10 µM [19] was 10.1%.
